IC50 and Kd data for 3 compounds are collected here from BindingDB's records for doi:10.1016/s0960-894x(01)00005-1 (Graduate School of Bioscience and Biotechnology, 2001).

The nature of assay [1]: Inhibitory activity against peptide binding to the RRE RNA was determined.
A short description of assay [2]: Dissociation constant for TAR RNA.

What is called IC50 is the concentration needed to halve the response being measured. `N=C(N)NCCCC(N)C(=O)NCC1OC(OC2C(N)CC(N)C(O)C2O)C(N)C(O)C1O` [2-Amino-5-guanidino-pentanoic acid [(4R,5S,6S)-5-amino-6-((2R,3R,4R)-4,6-diamino-2,3-dihydroxy-cyclohexyloxy)-3,4-dihydroxy-tetrahydro-pyran-2-ylmethyl]-amide] had an IC50 in assay [1] of 460 nM.
The term Kd denotes the free concentration of one partner at which half of the binding sites on the other are occupied at equilibrium, for simple one-to-one binding. Lower therefore signals a tighter complex. For the compound `N=C(N)NCCCC(NC(=O)c1ccc2ccc3cccc4ccc1c2c34)C(=O)NCC1OC(OC2C(N)CC(N)C(O)C2O)C(N)C(O)C1O` (stereo not drawn) [Neamine derivative], the equilibrium dissociation constant (Kd) in assay [2] stood at 30 nM.
On the same count and under the same terms, the same measure for `NC1CC(N)C(OC2OC(CNC(=O)c3ccc4ccc5cccc6ccc3c4c56)C(O)C(O)C2N)C(O)C1O` [Pyrene-1-carboxylic acid [(4R,5S,6S)-5-amino-6-((2R,3R,4R)-4,6-diamino-2,3-dihydroxy-cyclohexyloxy)-3,4-dihydroxy-tetrahydro-pyran-2-ylmethyl]-amide]: 290 nM.
